For 26 molecules, IC50 results are on record in patent publication US10562909B2, “Fused quadracyclic compounds, compositions and uses thereof” (Tabomedex Biosciences, LLC, priority 2016, dated 2020).

Sequence of MAPKAPK2 (P49137 whole entry, species assumed): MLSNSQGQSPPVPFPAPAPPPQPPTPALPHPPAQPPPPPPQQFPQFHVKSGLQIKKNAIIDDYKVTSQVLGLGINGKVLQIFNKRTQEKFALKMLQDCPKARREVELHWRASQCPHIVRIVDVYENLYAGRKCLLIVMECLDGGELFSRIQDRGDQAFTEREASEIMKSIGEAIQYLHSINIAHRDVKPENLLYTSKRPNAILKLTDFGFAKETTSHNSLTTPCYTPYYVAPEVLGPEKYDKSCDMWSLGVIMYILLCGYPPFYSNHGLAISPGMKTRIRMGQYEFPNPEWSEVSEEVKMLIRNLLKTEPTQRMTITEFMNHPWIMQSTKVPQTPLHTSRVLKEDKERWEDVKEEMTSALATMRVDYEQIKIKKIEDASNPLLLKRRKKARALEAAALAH

The assay addresses MAPKAPK2 (Homo sapiens, UniProt P49137). Put plainly: MK2 Enzymatic Assay. The format is biochemical. The settings on record: 0.5 nM MAPKAPK2, 3 μM ATP, 2 μM Ser/Thr4 peptide, 23° C., values given as concentration bins. How it is done:
Briefly, 5 μL of 2× (4 μM) 100% phosphorylation peptide was delivered into the control wells of a 384-well assay plate. 5 μL of 2× (1 nM) MAPKAPK2 and 2× peptide (4 μM) mixture in assay buffer was dispensed to remaining columns of assay plate using Eppendorf electronic multiple channel pipette. The assay plate was incubated for 20 minutes. 5 μL of 2× ATP (6 μM) in assay buffer was dispensed to each well and then the assay plate was lightly centrifuged. The assay plate was incubated for an additional 120 minutes.
5 μL of development reagent A was dispensed to all wells using Eppendorf electronic multiple channel pipette. After incubating the development reaction for 120 min, plates were read on a Perkin Elmer Envision instrument.
Percent phosphorylation was calculated using the following formula:
[formula] Where • C100%=Average Coumarin emission signal of the 100% Phos. Control • C0%=Average Coumarin emission signal of the 0% Phos. Control • F100%=Average Fluorescein emission signal of the 100% Phos. Control • F0%=Average Flurescein emission signal of the 0% Phos. Control
By IC50 is commonly meant the concentration that inhibits the measured activity by half. Read a low IC50 as greater potency. With `CC1c2cc(N3C[C@@H](CN(C)C)[C@H](O)C3)ccc2-n2ccnc2-c2cc(-c3ccc(F)cc3)cn21` (stereo partly drawn) [Compound 507, (3S,4R)-4-((dimethylamino)methyl)-1-(12-(4-fluorophenyl)-9-methyl-9H-benzo[e]imidazo[2,1-c]pyrrolo[1,2-a][1,4]diazepin-7-yl)pyrrolidin-3-ol], the IC50 is less than 50 nM.
To `C[C@H](CO)NC[C@@H]1CCN(c2ccc3c(c2)Cn2cc(-c4ccc(F)cc4)cc2-c2ncnn2-3)C1` [Compound 419, (R)-2-((((S)-1-(12-(4-fluorophenyl)-9H-benzo[e]pyrrolo[1,2-a][1,2,4]triazolo[5,1-c][1,4]diazepin-7-yl)pyrrolidin-3-yl)methyl)amino)propan-1-ol] belongs less than 50 nM; to `CN1CC2(CCN(c3ccc4c(c3)Cn3cc(-c5ccc(F)cc5)cc3-c3ncnn3-4)C2)C1` [Compound 412, 12-(4-fluorophenyl)-7-(2-methyl-2,6-diazaspiro[3.4]octan-6-yl)-9H-benzo[e]pyrrolo[1,2-a][1,2,4]triazolo[5,1-c][1,4]diazepine], less than 50 nM.
To `C[C@H](CO)NC[C@H]1CCN(c2cc3c(cn2)-n2ccnc2-c2cc(-c4ccc(F)cc4)cn2C3)C1` [Compound 442, (R)-2-((((R)-1-(12-(4-fluorophenyl)-9H-imidazo[2,1-c]pyrido[3,4-e]pyrrolo[1,2-a][1,4]diazepin-7-yl)pyrrolidin-3-yl)methyl)amino)propan-1-ol] belongs 100 to 200 nM; to `CNC[C@H]1CCN(c2ccc3c(c2)Cn2cc(-c4ccc(C#N)cc4)cc2-c2ncnn2-3)C1` [Compound 263, (R)-4-(7-(3-((methylamino)methyl)pyrrolidin-1-yl)-9H-benzo[e]pyrrolo[1,2-a][1,2,4]triazolo[5,1-c][1,4]diazepin-12-yl)benzonitrile], 100 to 200 nM.
The same measure for `C[C@@H]1c2cc(N3C[C@@H](CN(C)C)[C@H](O)C3)ccc2-n2ccnc2-c2cc(-c3ccc(F)cc3)cn21` [Compound 508, (3S,4R)-4-((dimethylamino)methyl)-1-((R)-12-(4-fluorophenyl)-9-methyl-9H-benzo[e]imidazo[2,1-c]pyrrolo[1,2-a][1,4]diazepin-7-yl)pyrrolidin-3-ol]: less than 50 nM; for `CN(C)C[C@H]1CCN(c2ccc3c(c2)Cn2cc(-c4ccc(F)cc4)cc2-c2nccn2-3)C1` [Compound 346, (R)-1-(1-(12-(4-fluorophenyl)-9H-benzo[e]imidazo[2,1-c]pyrrolo[1,2-a][1,4]diazepin-7-yl)pyrrolidin-3-yl)-N,N-dimethylmethanamine]: less than 50 nM.
As to `CNC[C@H]1CCN(c2ccc3c(c2)Cn2cc(-c4ccc(F)cc4)cc2-c2nccn2-3)C1` [Compound 348, (R)-1-(1-(12-(4-fluorophenyl)-9H-benzo[e]imidazo[2,1-c]pyrrolo[1,2-a][1,4]diazepin-7-yl)pyrrolidin-3-yl)-N-methylmethanamine], the half-inhibitory concentration (IC50) is less than 50 nM.
Turning to `CN(C)C[C@@H]1CN(c2ccc3c(c2)Cn2cc(-c4ccc(C#N)cc4)cc2-c2nncn2-3)C[C@H]1O` [Compound 108, 4-(7-((3R,4S)-3-((dimethylamino)methyl)-4-hydroxypyrrolidin-1-yl)-9H-benzo[e]pyrrolo[1,2-a][1,2,4]triazolo[3,4-c][1,4]diazepin-12-yl)benzonitrile], the IC50 was less than 50 nM.
To `CN(C)C[C@@H]1CN(c2ccc3c(n2)Cn2cc(-c4ccc(C#N)cc4)cc2-c2nccn2-3)C[C@@H]1O` [Compound 299, 4-(7-((3R,4R)-3-((dimethylamino)methyl)-4-hydroxypyrrolidin-1-yl)-9H-imidazo[2,1-c]pyrido[3,2-e]pyrrolo[1,2-a][1,4]diazepin-12-yl)benzonitrile] belongs less than 50 nM.
For `N#Cc1ccc(-c2cc3n(c2)Cc2cc(N4CC[C@H](CN5CCC(O)CC5)C4)ccc2-n2cnnc2-3)cc1` [Compound 111, (R)-4-(7-(3-((4-hydroxypiperidin-1-yl)methyl)pyrrolidin-1-yl)-9H-benzo[e]pyrrolo[1,2-a] [1,2,4]triazolo[3,4-c][1,4]diazepin-12-yl)benzonitrile], the IC50 was less than 50 nM.
To `CC(C)(NCC1CCN(c2ccc3c(c2)Cn2cc(-c4ccc(F)cc4)cc2-c2nccn2-3)C1)C(=O)O` (centres unmarked) [Compound 479, 2-(((1-(12-(4-fluorophenyl)-9H-benzo[e]imidazo[2,1-c]pyrrolo[1,2-a][1,4]diazepin-7-yl)pyrrolidin-3-yl)methyl)amino)-2-methylpropanoic acid] belongs 100 to 200 nM.
The same measure for `N#Cc1ccc(-c2cc3n(c2)Cc2cc(N4CC5(CCNC5)C4)ccc2-n2ncnc2-3)cc1` [Compound 258, 4-(7-(2,6-diazaspiro[3.4]octan-2-yl)-9H-benzo[e]pyrrolo[1,2-a][1,2,4]triazolo[5,1-c][1,4]diazepin-12-yl)benzonitrile]: 50 to 100 nM; for `N#Cc1ccc(-c2cc3n(c2)Cc2cc(N4CC[C@H]5NCC[C@@H]54)ccc2-n2ncnc2-3)cc1` (racemic) [Compound 249, 4-(7-(trans-hexahydropyrrolo[3,2-b]pyrrol-1(2H)-yl)-9H-benzo[e]pyrrolo[1,2-a][1,2,4]triazolo[5,1-c][1,4]diazepin-12-yl)benzonitrile]: less than 50 nM; for `CN(C)C[C@@H]1CCN(c2ccc3c(c2)Cn2cc(-c4ccc(F)cc4)cc2-c2nnnn2-3)C1` [Compound 393, (S)-1-(1-(12-(4-fluorophenyl)-9H-benzo[e]pyrrolo[1,2-a]tetrazolo[5,1-c][1,4]diazepin-7-yl)pyrrolidin-3-yl)-N,N-dimethylmethanamine]: less than 50 nM.
To `OC1CN(c2ccc3c(c2)Cn2cc(-c4ccc(F)cc4)cc2-c2nccn2-3)CC1CN1CCC1` (single isomer, unassigned) [Compound 469] belongs less than 50 nM; to `CC(C)[C@H](CO)NC[C@H]1CCN(c2ccc3c(c2)Cn2cc(-c4ccc(F)cc4)cc2-c2nccn2-3)C1` [Compound 358, (R)-2-((((R)-1-(12-(4-fluorophenyl)-9H-benzo[e]imidazo[2,1-c]pyrrolo[1,2-a][1,4]diazepin-7-yl)pyrrolidin-3-yl)methyl)amino)-3-methylbutan-1-ol], less than 50 nM.
`CN(C)[C@@H]1CN(c2ccc3c(n2)Cn2cc(-c4ccc(F)cc4)cc2-c2nccn2-3)C[C@@H]1O` [Compound 433, (3S,4R)-4-(dimethylamino)-1-(12-(4-fluorophenyl)-9H-imidazo[2,1-c]pyrido[3,2-e]pyrrolo[1,2-a][1,4]diazepin-7-yl)pyrrolidin-3-ol] displayed an IC50 of 50 to 100 nM.
The same measure for `CN1CC2(CCN(c3ccc4c(c3)Cn3cc(-c5ccc(F)cc5)cc3-c3nncn3-4)C2)C1` [Compound 332, 12-(4-fluorophenyl)-7-(2-methyl-2,6-diazaspiro[3.4]octan-6-yl)-9H-benzo[e]pyrrolo[1,2-a] [1,2,4]triazolo[3,4-c][1,4]diazepine]: less than 50 nM; for `C[C@H](CO)NC[C@H]1CCN(c2ccc3c(c2)Cn2cc(-c4ccc(F)cc4)cc2-c2ncnn2-3)C1` [Compound 420, (R)-2-((((R)-1-(12-(4-fluorophenyl)-9H-benzo[e]pyrrolo[1,2-a][1,2,4]triazolo[5,1-c][1,4]diazepin-7-yl)pyrrolidin-3-yl)methyl)amino)propan-1-ol]: less than 50 nM.
The same measure for `CN(C)C[C@H]1CN(c2ccc3c(c2)Cn2cc(-c4ccc(F)cc4)cc2-c2ncnn2-3)C[C@H]1F` [Compound 498, 1-((3S,4S)-4-fluoro-1-(12-(4-fluorophenyl)-9H-benzo[e]pyrrolo[1,2-a][1,2,4]triazolo[5,1-c][1,4]diazepin-7-yl)pyrrolidin-3-yl)-N,N-dimethylmethanamine]: less than 50 nM.
The same measure for `NC[C@H]1CCN(c2ccc3c(c2)Cn2cc(-c4ccc(F)cc4)cc2-c2nncn2-3)C1` [Compound 334, (R)-(1-(12-(4-fluorophenyl)-9H-benzo[e]pyrrolo[1,2-a][1,2,4]triazolo[3,4-c][1,4]diazepin-7-yl)pyrrolidin-3-yl)methanamine]: less than 50 nM; for `CNC[C@H]1CN(c2ccc3c(c2)Cn2cc(-c4ccc(F)cc4)cc2-c2nccn2-3)C[C@H]1O` [Compound 482, (3S,4S)-1-(12-(4-fluorophenyl)-9H-benzo[e]imidazo[2,1-c]pyrrolo[1,2-a][1,4]diazepin-7-yl)-4-((methylamino)methyl)pyrrolidin-3-ol]: less than 50 nM.
Consider `CN(C)C1CN(c2ccc3c(c2)Cn2cc(-c4ccc(C#N)cc4)cc2-c2nnnn2-3)C1` [Compound 235, 4-(7-(3-(dimethylamino)azetidin-1-yl)-9H-benzo[e]pyrrolo[1,2-a]tetrazolo[5,1-c][1,4]diazepin-12-yl)benzonitrile], for which the IC50 was in the range of 100 to 200 nM.
The same measure for `OCCN1CC2(CCN(c3ccc4c(c3)Cn3cc(-c5ccc(F)cc5)cc3-c3nccn3-4)C2)C1` [Compound 369, 2-(6-(12-(4-fluorophenyl)-9H-benzo[e]imidazo[2,1-c]pyrrolo[1,2-a][1,4]diazepin-7-yl)-2,6-diazaspiro[3.4]octan-2-yl)ethanol]: less than 50 nM; for `OC[C@@H]1CN(c2ccc3c(c2)Cn2cc(-c4ccc(F)cc4)cc2-c2nccn2-3)C[C@H]1O` [Compound 485, (3S,4S)-1-(12-(4-fluorophenyl)-9H-benzo[e]imidazo[2,1-c]pyrrolo[1,2-a][1,4]diazepin-7-yl)-4-(hydroxymethyl)pyrrolidin-3-ol]: 100 to 200 nM.
